Test results taken from patent US12178839B2, “Anti-obesity agent, pollakiuria improving agent, and autonomic nervous activity regulator” (ASAHI GROUP HOLDINGS, LTD., priority 2018, dated 2024).
Ends that are not written are not given here.

Test system: Male Wistar rats
Assay: Rat spontaneous urination test (metabolism cage), Test Example 6
Type: in vivo
Settings: aqueous 0.1 mg/mL LNDP solution as drinking for 7 days
Procedure: It was confirmed from Test Example 2 that LNDP promotes the efferent hypogastric nerve activity, and it was confirmed from Test Example 3 that LNDP inhibits the efferent the pelvic splanchnic nerve activity. Influence on the bladder, which is one of the internal organs dominated by these nerves, was therefore investigated.
Male Wistar rats which are 13 weeks old were received, and quarantined and acclimated in a thermostat animal room at 18 to 28° C. in a cycle including a 12-hour light period and a 12-hour dark period for 1 week, and ten 14- to 16-week-old rats per group were tested. An aqueous 0.1 mg/mL LNDP solution or water was ingested from drinking for 7 days, and the urination amount was measured as weight with an electronic balance installed under a urine-collecting opening in raising with a metabolism cage. The weight data of the electronic balance every minute were automatically inputted into a computer. […] The total urination amount and the frequency of urination per day were found, and the urine amount per one time of urination (=the total urination amount per day/the frequency of urination per day) was calculated as to an individual of each group. […] As to the comparison of the test substance and ingestion days with respect to each measured value, two-way analysis of variance (two-way ANOVA) with replication was performed.

“NIPPLTQTPVVVPPFLQPE [LNDP, Asn-Ile-Pro-Pro-Leu-Thr-Gln-Thr-Pro-Val-Val-Val-Pro-Pro-Phe-Leu-Gln-Pro-Glu]” was tested, and the “significant difference in change in body weight vs water ingestion group” value was “not observed” and the “significant difference in the general symptoms vs water ingestion group” value was “not observed”.
